This note sets out measurements from patent publication US7153873B2, “Salts of bicyclic, N-acylated imidazo-3-amines and imidazo-5-amines” (Gruenenthal GmbH, priority 2000, dated 2006).

The target in the assay is T1, μ-opiate receptor (Rattus norvegicus, UniProt P33535).
T1 construct: homogenate of rat brain without cerebellum, pons and medulla oblongata of male Wistar rats; from tissue; host or cells: rat brain (without cerebellum, pons and medulla oblongata), male Wistar rats, membrane homogenate
T1 sequence (P33535 whole entry): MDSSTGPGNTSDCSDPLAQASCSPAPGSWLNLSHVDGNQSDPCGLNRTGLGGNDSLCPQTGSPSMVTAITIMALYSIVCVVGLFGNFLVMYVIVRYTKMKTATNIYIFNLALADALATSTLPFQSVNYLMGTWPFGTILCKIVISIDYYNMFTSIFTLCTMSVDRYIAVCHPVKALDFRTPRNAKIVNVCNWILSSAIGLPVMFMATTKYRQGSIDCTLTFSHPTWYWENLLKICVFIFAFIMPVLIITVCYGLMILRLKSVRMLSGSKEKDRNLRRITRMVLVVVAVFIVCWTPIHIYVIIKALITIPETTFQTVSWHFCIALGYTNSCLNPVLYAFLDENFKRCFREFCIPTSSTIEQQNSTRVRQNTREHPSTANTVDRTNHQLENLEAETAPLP
As to the kind of experiment: μ-Opiate receptor binding investigations on rat brain membrane homogenates with tritiated naloxone. The conditions noted are these: 10 μM compound; rat brain membrane homogenate (male Wistar rats); 1 nmol/l tritiated naloxone as radioactive ligand; read-out: μ-affinity % inhibition 10 μM. The procedure:
μ-Opiate Receptor Binding Investigations
Investigations to determine the affinity of the compounds of Formula I according to the invention for the μ-opiate receptor were carried out on brain membrane homogenates (homogenate of rat brain without cerebellum, pons and medulla oblongata of male Wistar rats).
For this purpose, the respective freshly prepared rat brain was homogenized in 50 mmol/l tris-HCl (pH 7.4) with ice cooling and was centrifuged for 10 minutes at 5,000 g and 4° C. After decanting and rejection of the supernatant, retrieval and homogenisation of the membrane sediment in 50 mmol/l tris-HCl (pH 7.4), the homogenate was then centrifuged for 20 minutes at 20,000 g and 4° C. This washing stage was repeated several times. The supernatant was then decanted and the membrane sediment homogenized in cold 50 mmol/l tris-HCl, 20% glycerol (w/v), 0.01% Bactitracin (w/v) (pH 7.4) and frozen in aliquots until testing. To test receptor binding, the aliquots were thawed and diluted 1:10 with the binding test buffer.
In the binding test, a 50 mmol/l tris-HCl, 5 mmol/l MgCl (pH 7.4) was used as buffer and 1 nmol/l tritiated naloxone as radioactive ligand.
Consider `CC(=O)[n+]1c(-c2ccccc2)c(NC(C)(C)C)n2ccsc21` [Example 4, 7-acetyl-5-tert-butylamino-6-phenyl-imidazo[2,1-b]-thiazol-7-ium chloride], for which the inhibition (as a rule, how much of the control response was suppressed) at 10 µM worked out at 90%.

As to `CC(=O)[n+]1c(-c2ccccc2)c(NC2CCCCC2)n2c3ccccc3ccc21` [Example 5, 3-acetyl-1-cyclohexylamino-2-phenyl-imidazo[1,2-a]-quinolin-3-ium chloride], the inhibition at 10 µM worked out at 79%.

Consider `CC(=O)[n+]1c(-c2ccccc2)c(NC2CCCCC2)n2cccnc21` [Example 6, 1-acetyl-3-cyclohexylamino-2-phenyl-imidazo[1,2-a]-pyrimidin-1-ium chloride], for which the inhibition at 10 µM stood at 53%.

In the case of `CC(=O)[n+]1c(C)c(NC2CCCCC2)n2cccc(OCc3ccccc3)c21` [Example 7, 1-acetyl-8-benzyloxy-3-cyclohexylamino-2-methyl-imidazo[1,2-a]pyridin-1-ium chloride], the inhibition at 10 µM came to 91%.

On to `CC(=O)[n+]1c(C)c(NC(C)(C)C)n2cccc(OCc3ccccc3)c21` [Example 8, 1-acetyl-8-benzyloxy-3-tert-butylamino-2-methyl-imidazo[1,2-a]pyridin-1-ium chloride], for which the inhibition at 10 µM was determined as 98%.
